Test results: DBAASP
Values after ≈ are worked out from the molar mass of the structure shown. Values joined by “and” are separate entries in the source; they are usually repeats but may differ in a detail not shown here. Equal entries are not always repeated. Values belong to the molecule of their own block, whether it stands above or below them.

Assays:
Experiment in all cases: ≥ marks a high value that may be exact or a test limit, other limits are often not marked, values filed in µg/mL are converted to µM
[1] = tested on: Pseudomonas aeruginosa ATCC 27853
[2] = tested on: Staphylococcus aureus AB6538
[3] = tested on: Escherichia coli ATCC 25922
[4] = tested on: Pseudomonas aeruginosa ATCC 9027
Escherichia coli AB94012 = tested on: Escherichia coli AB94012
[5] = tested on: Staphylococcus aureus 113
[6] = tested on: Staphylococcus aureus 794
Staphylococcus aureus MR = tested on: Staphylococcus aureus MR
[7] = tested on: Staphylococcus aureus ATCC 33591
[8] = tested on: Staphylococcus aureus 725
[9] = tested on: Staphylococcus aureus 936
[10] = tested on: Staphylococcus aureus ATCC 25923
[11] = tested on: Escherichia coli CICC 10670
[12] = tested on: Salmonella enterica subsp. enterica serovar Typhimurium ATCC 14028
[13] = tested on: Staphylococcus aureus ATCC 6538
[14] = tested on: Bacillus subtilis CMCC 63501
[15] = tested on: Listeria monocytogenes ATCC 19115
[16] = tested on: Pseudomonas aeruginosa ATCC 47085
[17] = tested on: Acinetobacter baumannii ATCC 19606
[18] = tested on: Staphylococcus aureus ATCC 35556
[19] = tested on: Escherichia coli D31 CGSC 5165
[20] = tested on: Salmonella enterica serovar Typhimurium
[21] = tested on: Klebsiella pneumoniae ATCC 13866
[22] = tested on: Escherichia coli ATCC 35218
[23] = tested on: Staphylococcus epidermidis ATCC 12228
[24] = tested on: Staphylococcus aureus ATCC 29213
[25] = tested on: Escherichia coli ATCC 11229
[26] = tested on: Staphylococcus epidermidis NBRC 12993
[27] = tested on: Aspergillus oryzae NBRC 100959
[28] = tested on: Candida viswanathii NBRC 10321
[29] = tested on: Micrococcus luteus NBRC 3333
[30] = tested on: Escherichia coli NBRC 3972
[31] = tested on: Pseudomonas putida NBRC 100650
[32] = tested on: Candida albicans 08030401
[33] = tested on: Bacillus subtilis ATCC 6633
[34] = tested on: Candida albicans ATCC 2002
[35] = tested on: Candida albicans ATCC 10231
[36] = tested on: Candida albicans 08032815
Escherichia coli = tested on: Escherichia coli
[37] = tested on: Staphylococcus aureus BNCC 186335
Listeria monocytogenes = tested on: Listeria monocytogenes
Candida albicans SC5314 = tested on: Candida albicans SC5314
[38] = tested on: Pseudomonas aeruginosa BNCC 125486
[39] = tested on: Staphylococcus aureus ATCC 2592
Bacillus subtilis = tested on: Bacillus subtilis
Staphylococcus aureus = tested on: Staphylococcus aureus
[40] = tested on: Escherichia coli BNCC 133264

SMILES: CC[C@H](C)[C@H](NC(=O)[C@H](CCCCN)NC(=O)[C@@H]1CCCN1C(=O)[C@H](CC(C)C)NC(=O)[C@@H](NC(=O)[C@H](CCCCN)NC(=O)CNC(=O)[C@H](CC(C)C)NC(=O)[C@@H](NC(=O)[C@H](CCCCN)NC(=O)CNC(=O)[C@H](CC(C)C)NC(=O)[C@H](CC(C)C)NC(=O)CNC(=O)[C@H](CC(C)C)NC(=O)[C@@H](N)Cc1ccccc1)C(C)C)C(C)C)C(=O)N[C@@H](Cc1ccccc1)C(=O)N[C@@H](CCCCN)C(N)=O [FLGLLGKVLGKVLPKIFK]
MIC [1]: 12.7 µM (≈ 25 µg/mL)
MIC [2]: 3.17 µM (≈ 6.25 µg/mL)
MIC [3]: 12.7 µM (≈ 25 µg/mL)
MIC [4]: 12.7 µM and 25.4 µM
MIC (Escherichia coli AB94012): 6.34 µM (≈ 12.5 µg/mL)

SMILES: CC(C)C[C@H](NC(=O)[C@@H](NC(=O)[C@H](CCCCN)NC(=O)[C@H](CCCCN)NC(=O)[C@H](Cc1c[nH]c2ccccc12)NC(=O)[C@H](CC(C)C)NC(=O)[C@H](CCCN=C(N)N)NC(=O)[C@H](CC(C)C)NC(=O)[C@H](C)NC(=O)[C@H](CCCCN)NC(=O)CNC(=O)[C@H](CC(C)C)NC(=O)[C@H](CC(C)C)NC(=O)[C@H](CO)NC(=O)CNC(=O)[C@H](Cc1ccccc1)NC(=O)CN)C(C)C)C(N)=O [GFGSLLGKALRLWKKVL]
MIC [5]: 4.24 µM (≈ 8 µg/mL)
MIC [6]: 4.24 µM (≈ 8 µg/mL)
MIC (Staphylococcus aureus MR): 4.24 µM (≈ 8 µg/mL)
MIC [7]: 4.24 µM (≈ 8 µg/mL)
MIC [8]: 4.24 µM (≈ 8 µg/mL)
MIC [9]: 4.24 µM (≈ 8 µg/mL)
MIC [10]: 2.12 µM and 4.24 µM

SMILES: CC[C@H](C)[C@H](NC(=O)CN)C(=O)N[C@H](C(=O)N[C@@H](CC(=O)O)C(=O)N[C@@H](CC(C)C)C(=O)N[C@@H](CCCN=C(N)N)C(=O)NCC(=O)N[C@@H](CCSC)C(=O)N[C@@H](CC(C)C)C(=O)N[C@@H](CCCCN)C(=O)N[C@@H](CCCN=C(N)N)C(=O)N[C@@H](CC(C)C)C(=O)N[C@@H](CCCCN)C(=O)N[C@@H](CCCCN)C(=O)N[C@@H](CCSC)C(=O)N[C@@H](CCCCN)C(=O)O)[C@@H](C)O [GITDLRGMLKRLKKMK]
MIC [11]: 2.5 µM (≈ 4.72 µg/mL)
MIC [12]: 5 µM (≈ 9.44 µg/mL)
MIC [13]: 2.5 µM (≈ 4.72 µg/mL)
MIC [14]: 5 µM (≈ 9.44 µg/mL)
MIC [15]: 2.5 µM (≈ 4.72 µg/mL)

SMILES: CC[C@H](C)[C@H](NC(=O)[C@H](CCCCN)NC(=O)CNC(=O)[C@H](CC(C)C)NC(=O)[C@@H](NC(=O)[C@H](C)NC(=O)[C@H](CCCCN)NC(=O)CNC(=O)[C@H](C)NC(=O)CNC(=O)[C@H](CCCCN)NC(=O)[C@H](CCSC)NC(=O)[C@H](CCCCN)NC(=O)[C@@H](NC(=O)[C@H](Cc1c[nH]c2ccccc12)NC(=O)[C@H](CC(C)C)NC(=O)[C@H](CCC(=O)O)NC(=O)[C@H](CCCCN)NC(=O)[C@H](CC(C)C)NC(=O)[C@@H](N)CC(C)C)[C@@H](C)O)C(C)C)C(=O)N[C@@H](CCCCN)C(=O)NCC(=O)N[C@@H](CC(C)C)C(=O)N[C@@H](CC(C)C)C(=O)O [LLKELWTKMKGAGKAVLGKIKGLL]
MIC [16]: 15 µM (≈ 38.9 µg/mL)
MIC [17]: 1 µM (≈ 2.6 µg/mL)
MIC [18]: 15 µM (≈ 38.9 µg/mL)
MIC [19]: 0.94 µM (≈ 2.44 µg/mL)

SMILES: CC(C)[C@H](N)C(=O)N[C@@H](CCCCN)C(=O)N[C@@H](CCCN=C(N)N)C(=O)N[C@@H](Cc1ccccc1)C(=O)N[C@@H](CCCCN)C(=O)N[C@@H](CCCCN)C(=O)N[C@@H](Cc1ccccc1)C(=O)N[C@@H](Cc1ccccc1)C(=O)N[C@@H](CCCN=C(N)N)C(=O)N[C@@H](CCCCN)C(=O)N[C@@H](Cc1ccccc1)C(=O)N[C@@H](CCCCN)C(=O)N[C@@H](CCCCN)C(=O)N[C@@H](Cc1ccccc1)C(=O)N[C@H](C(N)=O)C(C)C [VKRFKKFFRKFKKFV]
MIC (Escherichia coli): 7.87 µM (≈ 16 µg/mL)
MIC [37]: 1.97 µM (≈ 4 µg/mL)
MIC (Listeria monocytogenes): 7.87 µM (≈ 16 µg/mL)
MIC (Candida albicans SC5314): 4.6 µM (≈ 9.35 µg/mL)
MIC [38]: 3.93 µM (≈ 8 µg/mL)
MIC [39]: 9.2 µM (≈ 18.7 µg/mL)
MIC (Bacillus subtilis): 9.2 µM (≈ 18.7 µg/mL)
MIC [3]: 4.6 µM (≈ 9.35 µg/mL)
MIC (Staphylococcus aureus): 3.93 µM (≈ 8 µg/mL)
MIC [40]: 0.984 µM (≈ 2 µg/mL)

Continued, values first:

MIC [1]: 12.9 µM (≈ 16 µg/mL)
MIC [20]: ≥ 104 µM
MIC [21]: 25.9 µM (≈ 32 µg/mL)
MIC [22]: ≥ 104 µM
MIC [23]: 12.9 µM (≈ 16 µg/mL)
MIC [24]: 104 µM (≈ 128 µg/mL)
MIC [7]: ≥ 104 µM
MIC [25]: 12.9 µM (≈ 16 µg/mL)
SMILES: CC[C@H](C)[C@H](NC(=O)[C@H](CCCN=C(N)N)NC(=O)[C@@H](N)CCSC)C(=O)NCC(=O)N[C@@H](CC(C)C)C(=O)N[C@@H](CCCN=C(N)N)C(=O)N[C@@H](Cc1ccccc1)C(=O)N[C@H](C(=O)N[C@@H](CC(C)C)C(=O)N[C@@H](CCSC)C(=O)O)C(C)C [MRIGLRFVLM]

MIC [26]: ≥ 64.6 µM
MIC [27]: ≥ 129 µM
MIC [28]: ≥ 258 µM
MIC [29]: ≥ 129 µM
MIC [30]: ≥ 64.6 µM
MIC [31]: ≥ 258 µM
SMILES: CC[C@H](C)[C@H](NC(=O)[C@H](CCCCN)NC(=O)[C@@H](N)CCCN=C(N)N)C(=O)N[C@@H](CCCCN)C(=O)N[C@@H](CCCN=C(N)N)C(=O)N[C@@H](Cc1ccc(O)cc1)C(=O)N[C@@H](CC(C)C)C(=O)N[C@@H](CCCN=C(N)N)C(=O)N[C@@H](CCCN=C(N)N)C(=O)N[C@@H](CCSC)C(=O)N[C@@H](CCCCN)C(=O)O [RKIKRYLRRMK]

MIC [32]: 13 µM (≈ 18.5 µg/mL)
MIC [33]: 26.4 µM (≈ 37.5 µg/mL)
MIC [34]: 13 µM (≈ 18.5 µg/mL)
MIC [3]: 26.4 µM (≈ 37.5 µg/mL)
MIC [35]: 13 µM (≈ 18.5 µg/mL)
MIC [10]: 26.4 µM (≈ 37.5 µg/mL)
MIC [36]: 13 µM (≈ 18.5 µg/mL)
SMILES: NCCCC[C@H](NC(=O)[C@H](CCCCN)NC(=O)[C@H](Cc1c[nH]c2ccccc12)NC(=O)[C@H](Cc1c[nH]c2ccccc12)NC(=O)[C@H](CCCCN)NC(=O)[C@H](Cc1ccccc1)NC(=O)[C@H](CCCN=C(N)N)NC(=O)[C@H](Cc1c[nH]c2ccccc12)NC(=O)[C@@H](N)CCCN=C(N)N)C(=O)O [RWRFKWWKK]
